Laboratory results as given in article PMC7449455 (PLoS Neglected Tropical Diseases, 2020).
Entries after “also recorded” stand apart in the source; their conditions may differ. Counter-ions that a name gives are not always drawn.

Legend:
L. major [1] = assay: L. major ex vivo lymph node explant culture (EVC), luminometry; assay type: cell-based, Leishmania major; details: 48 h at 34°C, luminescence
Method: An ex vivo explant culture (EVC) used in multiple experiments was obtained as previously described. Briefly, the mice were inoculated on the snout and rump with 10^7 metacyclic promastigotes of L. major-LUC. At 3 weeks post-infection (p.i.), the draining lymph nodes (retropharyngeal and sub-iliac) of infected animals were aseptically removed, infiltrated with 2 mg/mL of collagenase D (Roche) and incubated for 30 minutes at 37°C [21]. The cell suspension was washed in DMEM, and re-suspended in 2X supplemented culture medium, composed of DMEM (Cellgro), 10% heat-inactivated FBS (Atlanta Biologicals, Lawrenceville, GA), 2 mM Sodium pyruvate (Sigma, St. Louis MO), 2X MEM amino acids solution (Sigma), and 20 mM HEPES buffer (Cellgro). The EVC 100,000-cell suspension in 100 μL was dispensed in white luminometry plates (Costar) and exposed to 2-fold serial dilutions of 2X H1RAs in 100 μL DMEM (plain culture medium).
(§1) Cells exposed to compounds were lysed and the luciferase signal read in a plate luminometer (FLUOstar Omega, BMG Labtech) after adding 100 μL of luciferin substrate (Promega). The percentage of parasite inhibition compared with the vehicle control was calculated as = 100 - [(parasite counts in treated cells/parasite counts in vehicle wells) x 100]. The EC50 was determined by regression analysis using GraphPad (Prism 5.0) and the mean and standard error from three different experiments was utilized to estimate the final EC50. The anti-leishmanial efficacy of compounds was evaluated using L. major-LUC promastigotes in the logarithmic phase of growth (4 days). The parasites were grown in M199 supplemented with 20% FBS, 0.1% hemin and 10 mM adenine. Then, L. major was harvested and exposed to serial 2-fold dilutions of the compounds in a 100μL volume (10^6 promastigotes/mL) in 96-well white plates. After 48 h at 28°C incubation, the parasites were pelleted by centrifugation, lysed and 100 μL of luciferin substrate was added (Promega). The luciferase signal was read as described above.

[2] = Cytotoxicity in HepG2 cells (CellTiter-Glo); assay type: cell-based; details: human, HepG2 cell line, ATP quantification
Method: (§2) To determine compound toxicity we used the HepG2 cell line (human hepatocellular carcinoma, ATCC HB-8065) as a widely used cell-based assay. The cells were maintained in MEM (Gibco) supplemented with 5% heat-inactivated FBS, 1 mM Sodium pyruvate (Gibco) and 1X MEM amino acids solution (Sigma). Briefly, cells were added to white-bottomed 96-well plates containing 100 μL of serial 2-fold dilutions of the H1RAs. After 24 hours of culture at 37 °C, the percentage of viable cells was determined by ATP quantification using the CellTiter-Glo luminescent Cell Viability Assay (Promega) according to the manufacturer’s instructions. […] At least three different assays were carried out to determine the IVTI of each compound, which was calculated as the ratio between the CC50 obtained in the HepG2 cell line and the EC50 determined in the L. major EVC [21]. To evaluate the cytotoxicity of AZ and FX in peritoneal macrophages, adherent cells obtained from peritoneal lavage of naïve mice (10,000/well) were exposed during 24 hours at 37°C to serial drug concentrations (0.09 μM—200 μM). Cell viability was determined by CellTiter-Glo (Promega).

[3] = Cytotoxicity in naive mouse peritoneal macrophages (CellTiter-Glo); assay type: cell-based; details: read-out: CC50 (toxicity in peritoneal macrophages)
Method: as §2

[4] = tested on: h1r, il-1ẞ, IL-6 expression; assay: Gene expression by qPCR in L. major ex vivo lymph node explant culture; assay type: cell-based, mouse; details: EVC; for expression of H1R / expression of IL-1ẞ: quantitative PCR
Method: After 48 h of ex vivo treatments, the samples were lysed in 10 μL of IGEPAL lysis buffer (10 mM Tris-HCL ph7.4 + 0.3% IGEPAL, 0.1% BSA + 150 mM NaCl and 1,500 cells/μL) and reverse transcribed (High-Capacity cDNA Reverse Transcription Kit, ThermoFisher Sci.). Mouse h1r, il-1ẞ, and Leishmania 18s genes were amplified by qPCR using the following primers: mouse h1r: Fw- […]; Rev-[…] (PrimerBank database; ID and 31542963a1); Mouse il-1β: Fw- […]; Rev- […]); Leishmania 18s: Fw-[…]; Rev- […] [28]. Amplicons were detected with SYBR. The fold change of gene expression was estimated by the delta CT method using the host cell 18s as reference gene. The percentage of parasite load was calculated with reference to DMSO controls.

[5] = tested on: L. major-LUC promastigotes; assay: L. major-LUC promastigote culture, luminometry; assay type: cell-based, Leishmania major; details: 48 h, compared with concentrations used against intracellular amastigotes
Method: as §1

L. major [6] = assay: L. major-infected peritoneal macrophages with or without CD3+ T cells, luminometry; assay type: cell-based, Leishmania major
Method: The anti-leishmanial efficacy of AZ was also evaluated in adherent peritoneal macrophages from naïve mice infected in vitro with L. major promastigotes (1 cell: 10 parasites) during 4 h at 34°C. After washing extracellular parasites, infected cells were transferred to white plates (10,000/well) and exposed to AZ. The effect of T cells on parasite burden of AZ-treated cells was evaluated using CD3T+ cells. These cells were isolated by positive selection with magnetic beads (MojoSort, Biolegend) from the lymph nodes of either uninfected or L. major-infected mice (1 infected macrophage: 2 lymphocytes ratio). Parasite burden was determined after 48 h of culture by luminometry.

L. major [7] = assay: In vivo efficacy in BALB/c mice infected with L. major-LUC
Method: Mice were infected in the rump with 10^7 opsonized promastigotes of L. major-LUC as we previously described. The animals were treated starting at day 3 p.i. for up to 10 days. AZ (0.0625 and 0.125 mg/mouse) and FX (40 and 80 mg/kg) were dissolved in sterile PBS and administered by intralesional injection (ID) or gavage (PO), respectively. Mice receiving AZ were treated 3 times at 48-hour intervals. Control mice received sterile PBS according to the route used by each H1RAs (ID or PO). Miltefosine was administered orally at doses of 25 mg/kg or 50 mg/kg for 10 days and used as positive control of parasite suppression. The clinical efficacy was assessed by comparing lesion size (LS) after 10 days of treatment compared with the negative vehicle control as described by Grogl et al.. Therefore, percent suppression was defined as [(LS negative control–LS compound) / LS negative control] x 100. A parasite suppression ≥50% compared with the untreated control was considered significant anti-leishmanial activity. Lesion size (area in mm^2 = length x width) was measured using a digital caliper (Mitutoyo; Kawasaki, Japan).
The parasite burden of individual mice was assessed in vivo at the beginning and end of the experiment using the IVIS Spectrum equipment (Perkin Elmer) by injecting the animals with 1.5 mg luciferin (GoldBio) intradermally at the infection site. The ultrasensitive IVIS camera quantitatively measures the light emitted by the luciferase-transfected L. major upon exposure to the substrate (firefly luciferin). The mice were imaged under deep anesthesia using an isoflurane vaporizer. They were placed in a supine position in the pre-warmed IVIS box and the images were taken exactly 5 minutes after luciferin injection. The analysis was performed after defining a standard region of interest (ROI) over the infection site using the Living Image software (Xenogen Corporation, Almeda, CA). This protocol allowed us to determine the parasite burden in the same animal over multiple time points. Results were expressed in units of photons per second. […] This approach is in accordance with the criteria proposed for Leishmania in deciding when a compound qualifies to progress into ‘lead’ compound identification.

[8] = design: method as in PMID 11316966; details: daily oral 4 mg for 21 days, chronic idiopathic urticaria; cited from earlier work
L. infantum [9] = tested on: L. infantum; design: method as in PMID 31002807; details: infected spleen macrophages from hamsters; cited from earlier work
Leishmania mexicana = details: alone or in combination with pentostam; cited from earlier work
L. infantum [10] = tested on: L. infantum; design: method as in PMID 31002807, PMID 24905294; details: cited from earlier work
[11] = AZ 0.06 mg/mouse intralesional, statistically non-significant
[12] = AZ 0.125 mg/mouse intralesional x3, luminometry
[13] = FX lower-dose regimens (40 mg/kg twice a day or 80 mg/kg once a day)

In the case of CN1CCCC(n2nc(Cc3ccc(Cl)cc3)c3ccccc3c2=O)CC1 (stereo not shown) [Azelastine], the EC50 (L. major [1]; Leishmania major, 48 h) is reported as 0.05 ± 0.02 µM, the CC50 at 24 h [2] is reported as 45.1 ± 11.2 µM and the CC50 at 24 h [3] is reported as 0.95 µM. The “decrease of the expression of IL-6” value ([4]; qPCR, highly variable) was 20.1± 21%, the “expression of H1R” value [4] was “significantly inhibited its expression” and the “expression of IL-1ẞ” value [4] was “reduced the pro-inflammatory cytokine IL1-ẞ”. The “suppressive effect against cultured promastigotes” value [5] was “suppressive effect against cultured promastigotes only when used at concentrations 100-fold higher”, the intracellular amastigote suppression (L. major [6]; 0.5 μM, infected naive mouse peritoneal macrophages, 48 h) was “positive effect on intracellular amastigote suppression” and the “parasite killing with primed T cells from infected mice” value (L. major [6]; in presence of AZ, versus macrophages alone or with naive lymphocytes) was “significantly enhanced parasite killing”. The “reduction of parasite burden in lymph node” value (L. major [7]; [11]) was 15%, the “reduction of parasite burden in the lesion” value (L. major [7]; [11]) was 57% and the “reduction of parasite load in lymph node” value (L. major [7]; [12]) was 36%. For the same compound, the “reduction of parasite load in the lesion” value (L. major [7]; [12]) was 87%, the “lesion diminution compared with untreated controls” value (L. major [7]; AZ 0.125 mg/mouse, three intralesional injections every other day) was 52% and the “weight loss or observable side effect” value (L. major [7]; AZ intralesional, 0.125 mg/mouse, listed as AZ) was “no observable side effects; also recorded: None of the mice treated with this compound presented weight loss or any observable side effect”. For the same compound, the side effects [8] was “lack of side effects”.
Compound CN1CCN2c3ccccc3Cc3ccccc3C2C1 (stereo not shown) [Mianserin] has a CC50 at 24 h [2] of 157 ± 19 µM.
Compound CN1CCC(=C2c3ccccc3CC(=O)c3sccc32)CC1 [Ketotifen] has an EC50 (L. major [1]; Leishmania major, 48 h) of 11.86 ± 0.1 µM and a CC50 at 24 h [2] of 282 ± 22.9 µM.
With NCCc1c[nH]cn1 [histamine] the “expression of H1R” value [4] was “markedly increased the expression of H1R” and the “expression of IL-1ẞ” value [4] was “increased the expression of IL-1ẞ”.
In the case of CCCCCCCCCCCCCCCCOP(=O)([O-])OCC[N+](C)(C)C [Miltefosine], the EC50 (L. major [1]; Leishmania major, 48 h) is reported as 1.64 ± 0.26 µM and the CC50 at 24 h [2] is reported as 74.9 ± 5.01 µM.
Work on C[C@@H]1[C@H](O)[C@@H](C)/C=C/C=C/C=C/C=C/C=C/C=C/C=C/[C@H](O[C@@H]2O[C@H](C)[C@@H](O)[C@H](N)[C@@H]2O)C[C@@H]2O[C@](O)(C[C@@H](O)C[C@@H](O)[C@H](O)CC[C@@H](O)C[C@@H](O)CC(=O)O[C@H]1C)C[C@H](O)[C@H]2C(=O)O [Amphotericin B] yielded an EC50 (L. major [1]; Leishmania major, 48 h) of 0.5 ± 0.01 µM and a CC50 at 24 h [2] of 16.3 ± 1.49 µM.
In the case of CC(C)(C(=O)O)c1ccc(C(O)CCCN2CCC(C(O)(c3ccccc3)c3ccccc3)CC2)cc1 (stereo not shown) [Fexofenadine], the EC50 (L. major [1]; Leishmania major, 48 h) is reported as 1.5 ± 0.18 µM, the “reduction in lesion size” value (L. major [7]; FX 40 mg/kg PO twice a day) is reported as 50% and the “reduction in lesion size” value (L. major [7]; FX 80 mg/kg PO once a day) is reported as 37%. The “loss of body weight” value (L. major [7]; FX 80 mg/kg PO twice a day) was no more than 5%, the “reduction in lesion size compared with untreated control” value (L. major [7]; FX 80 mg/kg PO twice a day) was 69% and the “reduction in parasite burden at the lesion site” value (L. major [7]; FX 80 mg/kg PO twice a day) was 82%. The “reduction in parasite burden in draining lymph nodes” value (L. major [7]; FX 80 mg/kg PO twice a day) was 81%, the clinical side effects (L. major [7]; FX PO, 80 mg/kg twice a day, listed as FX, 80 mg/kg) was “no observable side effects; also recorded: no other clinical side effect was found” and the “reduction of parasite load in lesions” value (L. major [7]; [13]) was “up to 59%”. The “reduction of parasite load in lymph nodes” value (L. major [7]; [13]) was no more than 72% and the IC50 (L. infantum [9]) was greater than 100 µM.
For CN1CCC(=C2c3ccccc3C=Cc3ccccc32)CC1 [Cyproheptadine], the CC50 at 24 h [2] was 172 ± 41 µM.
For Cc1ccc(/C(=C\CN2CCCC2)c2ccccn2)cc1 [Triprolidine], the EC50 (L. major [1]; Leishmania major, 48 h) was 11.2 ± 4.2 µM and the CC50 at 24 h [2] was 390 ± 27.9 µM.
In the case of c1ccc2c(c1)Sc1ccccc1N2CC1CN2CCC1CC2 (stereo not shown) [Mequitazine], the EC50 (L. major [1]) is reported as 4.53 ± 3.9 µM, the EC50 (L. major [1]; listed as mequitazine) is reported as less than 10 µM and the CC50 at 24 h [2] is reported as 50.3 ± 8.75 µM.
In the case of CN/C(=N/CCSCc1nc[nH]c1C)NC#N [cimetidine], the treatment efficacy (Leishmania mexicana) is given as “effective”.
For CN(C)CCN(Cc1ccc(Cl)cc1)c1ccccn1 [Chloropyramine], the EC50 (L. major [1]) was 3.87 ± 0.2 µM, the EC50 (L. major [1]; listed as chloropyramine) was less than 10 µM and the CC50 at 24 h [2] was 140 ± 49.6 µM.
In the case of C(=C\c1ccccc1)/CN1CCN(C(c2ccccc2)c2ccccc2)CC1 [cinnarizine], the “parasite load in hamster spleen” value (L. infantum [10]) is listed as “failed to significantly decrease the parasite load”.
CN(C)CC[C@@H](c1ccc(Cl)cc1)c1ccccn1 [Dexchlorpheniramine maleate] showed an EC50 (L. major [1]; Leishmania major, 48 h) of 35.2 ± 6.9 µM and a CC50 at 24 h [2] of 177 ± 16.3 µM.
